From patent US20180179189A1, “ADIPATE FORMS AND COMPOSITIONS OF BIARYL INHIBITORS OF BRUTON'S TYROSINE KINASE” (BIOGEN MA INC., priority 2015, published 2018)

Tests used:
[1] = DVS (dynamic vapor sorption) test; format: physicochemical
Method: DVS was measured via a SMS (Surface Measurement Systems) DVS Intrinsic. The relative humidity at 25° C. were calibrated against deliquescence point of LiCl, Mg(NO3)2 and KCl.

Btk = conditions: reported in the '853 application; read-out: IC50 in a pBTK assay; cited from earlier work
[2] = pKa via potentiometric titration; format: physicochemical
Excerpt: Where this threshold is not met, non-ionic interactions (e.g., hydrogen bonds) can still occur between neutral acid and the base compounds to form, e.g., a co-crystal.

SMILES | form change after the DVS test (XRPD) [1] | water uptake (DVS) ([1]; 25° C./80% RH) | hygroscopicity ([1]; from DVS, 25° C./80% RH) | IC50 (Btk) | pKa [2]
Cc1cc(-c2ccnc(Nc3cnn(C)c3)n2)ccc1CNC(=O)N1CC(OC(C)C)C1 [Compound 2 Type II] | no form change | 0.3% | slightly hygroscopic |  | 
Cc1cc(-c2ccnc(Nc3cnn(C)c3)n2)ccc1CNC(=O)N1CC(OC(C)C)C1 [Compound 1, 3-isopropoxy-N-(2-methyl-4-(2-((1-methyl-1H-pyrazol-4-yl)amino)pyrimidin-4-yl)benzyl)azetidine-1-carboxamide] |  |  |  | […] | 3.31
